Measured values from US7160900B2, “Tetrahydropyridino or piperidino heterocyclic derivatives” (Taisho Pharmaceutical Co., Ltd., priority 2000, dated 2007).

A melting point of 160 to 162 °C was found for `Cc1cc(N2CC=C(CC(N)=O)CC2)c2cccc(-c3ccc(Cl)cc3Cl)c2n1` [compound 1-05, 2-{1-[8-(2,4-dichlorophenyl)-2-methylquinolin-4-yl]-1,2,3,6-tetrahydropyridin-4-yl}-acetamide] in this work.
